ChEMBL document CHEMBL1154593, “Insights into the inhibition of xanthine oxidase by curcumin” (Bioorg Med Chem Lett, 2009)

Molecular target: Xanthine dehydrogenase/oxidase (Homo sapiens, UniProt P47989)
Experiment: Inhibition of xanthine oxidase

Chain of Xanthine dehydrogenase/oxidase (P47989 whole entry): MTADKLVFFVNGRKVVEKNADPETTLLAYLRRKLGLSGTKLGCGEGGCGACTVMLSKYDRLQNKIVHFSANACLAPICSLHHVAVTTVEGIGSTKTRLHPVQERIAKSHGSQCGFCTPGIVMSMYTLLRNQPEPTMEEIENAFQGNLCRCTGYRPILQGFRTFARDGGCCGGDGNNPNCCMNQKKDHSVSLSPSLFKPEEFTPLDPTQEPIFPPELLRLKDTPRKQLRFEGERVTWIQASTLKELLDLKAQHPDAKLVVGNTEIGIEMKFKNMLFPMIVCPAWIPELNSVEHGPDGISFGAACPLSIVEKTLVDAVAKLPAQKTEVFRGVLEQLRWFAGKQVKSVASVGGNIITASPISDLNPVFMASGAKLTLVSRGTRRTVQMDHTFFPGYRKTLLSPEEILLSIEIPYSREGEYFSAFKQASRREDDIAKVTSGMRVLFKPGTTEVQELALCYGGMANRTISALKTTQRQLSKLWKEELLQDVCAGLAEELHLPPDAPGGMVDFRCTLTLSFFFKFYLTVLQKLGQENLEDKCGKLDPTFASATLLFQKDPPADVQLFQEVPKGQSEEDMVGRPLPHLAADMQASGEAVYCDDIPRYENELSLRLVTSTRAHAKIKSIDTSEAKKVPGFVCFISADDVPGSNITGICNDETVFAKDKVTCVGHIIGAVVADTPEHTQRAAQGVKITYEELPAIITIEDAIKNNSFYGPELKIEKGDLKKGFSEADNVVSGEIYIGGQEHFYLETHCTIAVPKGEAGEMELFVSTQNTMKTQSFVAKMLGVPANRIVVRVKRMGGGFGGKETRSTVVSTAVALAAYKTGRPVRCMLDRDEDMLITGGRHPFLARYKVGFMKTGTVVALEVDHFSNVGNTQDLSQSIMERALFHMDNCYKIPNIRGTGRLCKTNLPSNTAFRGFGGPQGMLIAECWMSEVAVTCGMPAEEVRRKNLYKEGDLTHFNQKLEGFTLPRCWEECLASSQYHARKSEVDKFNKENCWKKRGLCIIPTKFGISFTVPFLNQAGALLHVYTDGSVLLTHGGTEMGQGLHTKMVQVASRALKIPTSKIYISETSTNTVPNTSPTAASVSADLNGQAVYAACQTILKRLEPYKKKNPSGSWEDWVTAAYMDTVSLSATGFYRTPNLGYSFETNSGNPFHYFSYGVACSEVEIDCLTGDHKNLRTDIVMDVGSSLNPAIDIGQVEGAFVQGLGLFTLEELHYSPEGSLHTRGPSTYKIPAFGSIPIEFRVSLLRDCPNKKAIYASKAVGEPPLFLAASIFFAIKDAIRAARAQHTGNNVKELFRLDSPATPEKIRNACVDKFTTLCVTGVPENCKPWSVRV

In the case of `COc1cc(/C=C/C=O)ccc1O` [CONIFERYL ALDEHYDE], the Ki is reported as 93.9 µM.
